How the values were obtained:
[1] = test system: Glomerella laqenarium (Colletotrichum lagenarium); assay: Fungicidal activity against Glomerella lagenarium (Colletotrichum lagenarium) liquid culture / cucumber / preventative (anthracnose); type: cell-based; details: Colletotrichum orbiculare; 20 ppm in the applied formulation; liquid culture in PDB, 24° C., 3 to 4 days after application; read-out: disease control compared to untreated control (inhibition of growth measured photometrically)
Protocol: Mycelia fragments or conidia suspensions of a fungus prepared either freshly from liquid cultures of the fungus or from cryogenic storage, are directly mixed into nutrient broth. DMSO solutions of the test compound (max. 10 mg/ml) are diluted with 0.025% Tween20 by a factor of 50 and 10 μl of this solution is pipetted into a microtiter plate (96-well format). The nutrient broth containing the fungal spores/mycelia fragments is then added to give an end concentration of the tested compound. The test plates are incubated in the dark at 24° C. and 96% relative humidity. The inhibition of fungal growth is determined photometrically after 2 to 7 days, depending on the pathosystem, and percent antifungal activity relative to the untreated check is calculated.
Example 4: Fungicidal Activity Against Glomerella laqenarium (Colletotrichum lagenarium) Liquid Culture/Cucumber/Preventative (Anthracnose)
Conidia of the fungus from cryogenic storage are directly mixed into nutrient broth (PDB—potato dextrose broth). After placing a (DMSO) solution of test compound into a microtiter plate (96-well format), the nutrient broth containing the fungal spores is added. The test plates are incubated at 24° C. and the inhibition of growth is measured photometrically 3 to 4 days after application.
The following compounds at 20 ppm in the applied formulation give at least 80% disease control in this test when compared to untreated control under the same conditions, which show extensive disease development.

[2] = test system: Puccinia recondita f. sp. tritici; assay: Fungicidal activity against Puccinia recondita f. sp. tritici / wheat / leaf disc preventative (brown rust); type: in vivo; details: foliar, 200 ppm in the applied formulation, wheat leaf segments cv. Kanzler, preventative (inoculated 1 day after application), assessed 7 to 9 days after application, read-out: disease control compared to untreated control leaf disks
Protocol: (§1) Leaf disks or leaf segments of various plant species are cut from plants grown in a greenhouse. The cut leaf disks or segments are placed in multiwell plates (24-well format) onto water agar. The leaf disks are sprayed with a test solution before (preventative) or after (curative) inoculation. Compounds to be tested are prepared as DMSO solutions (max. 10 mg/ml) which are diluted to the appropriate concentration with 0.025% Tween20 just before spraying. The inoculated leaf disks or segments are incubated under defined conditions (temperature, relative humidity, light, etc.) according to the respective test system. A single evaluation of disease level is carried out 3 to 14 days after inoculation, depending on the pathosystem. Percent disease control relative to the untreated check leaf disks or segments is then calculated. General Examples of Liquid Culture Tests in Well Plates:
Example 1: Fungicidal Activity Against Puccinia recondita f. sp. tritici/Wheat/Leaf Disc Preventative (Brown Rust)
Wheat leaf segments cv. Kanzler were placed on agar in multiwell plates (24-well format) and sprayed with the formulated test compound diluted in water. The leaf disks were inoculated with a spore suspension of the fungus 1 day after application. The inoculated leaf segments were incubated at 19C and 75% relative humidity (rh) under a light regime of 12 hours light/12 hours darkness in a climate cabinet and the activity of a compound was assessed as percent disease control compared to untreated when an appropriate level of disease damage appears in untreated check leaf segments (7 to 9 days after application).
(§2) The following compounds at 200 ppm in the applied formulation give at least 80% disease control in this test when compared to untreated control leaf disks under the same conditions, which show extensive disease development.

[3] = test system: Puccinia recondita f. sp. tritici; assay: Fungicidal activity against Puccinia recondita f. sp. tritici / wheat / leaf disc curative (brown rust); type: in vivo; details: foliar, 200 ppm in the applied formulation, wheat leaf segments cv. Kanzler, curative (applied 1 day after inoculation), assessed 6 to 8 days after application, read-out: disease control compared to untreated control leaf disks
Protocol: as §1
Example 2: Fungicidal Activity Against Puccinia recondita f. sp. Tritici/Wheat/Leaf Disc Curative (Brown Rust)
Wheat leaf segments cv. Kanzler are placed on agar in multiwell plates (24-well format). The leaf segments are then inoculated with a spore suspension of the fungus. Plates were stored in darkness at 19° C. and 75% relative humidity. The formulated test compound diluted in water was applied 1 day after inoculation. The leaf segments were incubated at 19° C. and 75% relative humidity under a light regime of 12 hours light/12 hours darkness in a climate cabinet and the activity of a compound was assessed as percent disease control compared to untreated when an appropriate level of disease damage appears in untreated check leaf segments (6 to 8 days after application).
as §2

[4] = test system: Phakopsora pachyrhizi; assay: Fungicidal activity against Phakopsora pachyrhizi / soybean / leaf disc preventative (Asian soybean rust); type: in vivo; details: foliar, 200 ppm in the applied formulation, soybean leaf disks, preventative (inoculated one day after application), assessed 12 to 14 days after application, read-out: disease control compared to untreated control leaf disks
Protocol: as §1
Example 3: Fungicidal Activity Against Phakopsora pachyrhizi/Soybean/Leaf Disc Preventative (Asian Soybean Rust)
Soybean leaf disks are placed on water agar in multiwell plates (24-well format) and sprayed with the formulated test compound diluted in water. One day after application leaf discs are inoculated by spraying a spore suspension on the lower leaf surface. After an incubation period in a climate cabinet of 24-36 hours in darkness at 20° C. and 75% rh leaf disc are kept at 20° C. with 12 h light/day and 75% rh. The activity of a compound is assessed as percent disease control compared to untreated when an appropriate level of disease damage appears in untreated check leaf disks (12 to 14 days after application).
as §2

O=C(NCC1CC1)c1ccc(-c2noc(C(F)(F)F)n2)cc1Cl [Compound 2b.13, 2-chloro-N-(cyclopropyl-methyl)-4-[5-(trifluoromethyl)-1,2,4-oxadiazol-3-yl]benzamide]
≥ 80%: inhibition at 20 ppm [1] | pest or weed control at 200 ppm [2] | pest or weed control at 200 ppm [3] | pest or weed control at 200 ppm [4]

CCC(C)NC(=O)c1ccc(-c2noc(C(F)(F)F)n2)cc1 (stereo not shown) [Compound 3a.7, N-sec-butyl-4-[5-(trifluoromethyl)-1,2,4-oxadiazol-3-yl]benzamide]
≥ 80%: inhibition at 20 ppm [1] | pest or weed control at 200 ppm [2] | pest or weed control at 200 ppm [3] | pest or weed control at 200 ppm [4]

CCC(COC)NC(=O)c1ccc(-c2noc(C(F)(F)F)n2)cc1 (stereo not shown) [Compound 3a.9, N-[1-(methoxymethyl)propyl]-4-[5-(trifluoromethyl)-1,2,4-oxadiazol-3-yl]benzamide]
≥ 80%: inhibition at 20 ppm [1] | pest or weed control at 200 ppm [2] | pest or weed control at 200 ppm [3] | pest or weed control at 200 ppm [4]

CC(O)CNC(=O)c1ccc(-c2noc(C(F)(F)F)n2)cc1 (stereo not shown) [Compound 3a.10, N-(2-hydroxypropyl)-4-[5-(trifluoromethyl)-1,2,4-oxadiazol-3-yl]benzamide]
≥ 80%: inhibition at 20 ppm [1] | pest or weed control at 200 ppm [2] | pest or weed control at 200 ppm [3] | pest or weed control at 200 ppm [4]

CCOC(C)CNC(=O)c1ccc(-c2noc(C(F)(F)F)n2)cc1 (stereo not shown) [Compound 3a.11, N-(2-ethoxypropyl)-4-[5-(trifluoromethyl)-1,2,4-oxadiazol-3-yl]benzamide]
≥ 80%: inhibition at 20 ppm [1] | pest or weed control at 200 ppm [2] | pest or weed control at 200 ppm [3] | pest or weed control at 200 ppm [4]

COCCN(C(=O)c1ccc(-c2noc(C(F)(F)F)n2)cc1)C(C)C [Compound 3a.12, N-isopropyl-N-(2-methoxyethyl)-4-[5-(trifluoromethyl)-1,2,4-oxadiazol-3-yl]benzamide]
≥ 80%: inhibition at 20 ppm [1] | pest or weed control at 200 ppm [2] | pest or weed control at 200 ppm [3] | pest or weed control at 200 ppm [4]

CC(C)CN(C)C(=O)c1ccc(-c2noc(C(F)(F)F)n2)cc1 [Compound 3a.13, N-isobutyl-N-methyl-4-[5-(trifluoromethyl)-1,2,4-oxadiazol-3-yl]benzamide]
≥ 80%: inhibition at 20 ppm [1] | pest or weed control at 200 ppm [2] | pest or weed control at 200 ppm [3] | pest or weed control at 200 ppm [4]

CCC(O)CNC(=O)c1ccc(-c2noc(C(F)(F)F)n2)cc1 (stereo not shown) [Compound 3a.14, N-(2-hydroxybutyl)-4-[5-(trifluoromethyl)-1,2,4-oxadiazol-3-yl]benzamide]
≥ 80%: inhibition at 20 ppm [1] | pest or weed control at 200 ppm [2] | pest or weed control at 200 ppm [3] | pest or weed control at 200 ppm [4]

CC(=O)CC(C)(C)NC(=O)c1ccc(-c2noc(C(F)(F)F)n2)cc1 [Compound 3a.16, N-(1,1-dimethyl-3-oxo-butyl)-4-[5-(trifluoromethyl)-1,2,4-oxadiazol-3-yl]benzamide]
≥ 80%: inhibition at 20 ppm [1] | pest or weed control at 200 ppm [2] | pest or weed control at 200 ppm [3] | pest or weed control at 200 ppm [4]

CC(C)C(CO)NC(=O)c1ccc(-c2noc(C(F)(F)F)n2)cc1 (stereo not shown) [Compound 3a.18, N-[1-(hydroxymethyl)-2-methyl-propyl]-4-[5-(trifluoromethyl)-1,2,4-oxadiazol-3-yl]benzamide]
≥ 80%: inhibition at 20 ppm [1] | pest or weed control at 200 ppm [3] | pest or weed control at 200 ppm [4]

O=C(NCCCCCl)c1ccc(-c2noc(C(F)(F)F)n2)cc1 [Compound 3a.20, N-(4-chlorobutyl)-4-[5-(trifluoromethyl)-1,2,4-oxadiazol-3-yl]benzamide]
≥ 80%: inhibition at 20 ppm [1] | pest or weed control at 200 ppm [2] | pest or weed control at 200 ppm [3] | pest or weed control at 200 ppm [4]

CCOCCCNC(=O)c1ccc(-c2noc(C(F)(F)F)n2)cc1 [Compound 3a.22, N-(3-ethoxypropyl)-4-[5-(trifluoromethyl)-1,2,4-oxadiazol-3-yl]benzamide]
≥ 80%: inhibition at 20 ppm [1] | pest or weed control at 200 ppm [2] | pest or weed control at 200 ppm [3] | pest or weed control at 200 ppm [4]

O=C(NCCCCO)c1ccc(-c2noc(C(F)(F)F)n2)cc1 [Compound 3a.24, N-(4-hydroxybutyl)-4-[5-(trifluoromethyl)-1,2,4-oxadiazol-3-yl]benzamide]
≥ 80%: inhibition at 20 ppm [1] | pest or weed control at 200 ppm [2] | pest or weed control at 200 ppm [3] | pest or weed control at 200 ppm [4]

CC(C)(O)CNC(=O)c1ccc(-c2noc(C(F)(F)F)n2)cc1 [Compound 3a.27, N-(2-hydroxy-2-methyl-propyl)-4-[5-(trifluoromethyl)-1,2,4-oxadiazol-3-yl]benzamide]
≥ 80%: inhibition at 20 ppm [1] | pest or weed control at 200 ppm [2] | pest or weed control at 200 ppm [3] | pest or weed control at 200 ppm [4]

C=CCN(CC)C(=O)c1ccc(-c2noc(C(F)(F)F)n2)cc1 [Compound 3a.28, N-allyl-N-ethyl-4-[5-(trifluoromethyl)-1,2,4-oxadiazol-3-yl]benzamide]
≥ 80%: inhibition at 20 ppm [1] | pest or weed control at 200 ppm [2] | pest or weed control at 200 ppm [3] | pest or weed control at 200 ppm [4]

CC(C)C(CO)NC(=O)c1ccc(-c2noc(C(F)(F)F)n2)cc1F (stereo not shown) [Compound 3b.18, 2-fluoro-N-[1-(hydroxymethyl)-2-methyl-propyl]-4-[5-(trifluoromethyl)-1,2,4-oxadiazol-3-yl]benzamide]
≥ 80%: inhibition at 20 ppm [1] | pest or weed control at 200 ppm [3]

O=C(NCCCO)c1ccc(-c2noc(C(F)(F)F)n2)cc1F [Compound 3b.23, 2-fluoro-N-(3-hydroxypropyl)-4-[5-(trifluoromethyl)-1,2,4-oxadiazol-3-yl]benzamide]
≥ 80%: inhibition at 20 ppm [1] | pest or weed control at 200 ppm [3] | pest or weed control at 200 ppm [4]

CCOC(=O)CC(C)NC(=O)c1ccc(-c2noc(C(F)(F)F)n2)cc1F (stereo not shown) [Compound 3b.28, ethyl 3-[[2-fluoro-4-[5-(trifluoromethyl)-1,2,4-oxadiazol-3-yl]benzoyl]amino]butanoate]
≥ 80%: inhibition at 20 ppm [1] | pest or weed control at 200 ppm [2] | pest or weed control at 200 ppm [3]

CCCCCCNC(=O)c1ccc(-c2noc(C(F)(F)F)n2)cc1F [Compound 3b.31, 2-fluoro-N-hexyl-4-[5-(trifluoromethyl)-1,2,4-oxadiazol-3-yl]benzamide]
≥ 80%: inhibition at 20 ppm [1] | pest or weed control at 200 ppm [3] | pest or weed control at 200 ppm [4]

CN(C(=O)c1ccc(-c2noc(C(F)(F)F)n2)cc1)c1ccccn1 [Compound 5a.4, N-methyl-N-(2-pyridyl)-4-[5-(trifluoromethyl)-1,2,4-oxadiazol-3-yl]benzamide]
≥ 80%: inhibition at 20 ppm [1] | pest or weed control at 200 ppm [3] | pest or weed control at 200 ppm [4]

From US10959432B2, “Microbiocidal oxadiazole derivatives” (Syngenta Participations AG, priority 2016, dated 2021)
